log2fc data for 46 compounds are collected here from patent publication US12195490B2, “STRAD-binding agents and uses thereof” (The Regents of the University of California, priority 2020, dated 2025).

The test relates to ACHN cell line. The experiment in a line: drug screen of the SelleckChem kinase inhibitor library with and without 5 uM SU-329, Cell-Titer Glo after 5 days. The test is classed as cell-based. To be noted: kinase inhibitor at 200 nM with and without 5 uM SU329; ACHN cell line; 5 days; Cell-Titer Glo.

`CN(C)Cc1cccc(N/C(=C2\C(=O)Nc3cc(C(N)=O)ccc32)c2ccccc2)c1` [BIX 02188] displayed a log2fc of 0.2216. Consider `CN(C)Cc1cccc(N/C(=C2\C(=O)Nc3cc(C(=O)N(C)C)ccc32)c2ccccc2)c1` [BIX 02189], for which the log2fc was −0.08248. Under `CCCCOc1c(C(=O)c2c(F)cc(C)cc2F)c[nH]c2nncc1-2` [BMS-265246] stands −0.1077; under `Cc1cc(N2CCOCC2)cc2[nH]c(-c3c(NC[C@@H](O)c4cccc(Cl)c4)cc[nH]c3=O)nc12` [BMS-536924], 0.4161; under `C[C@@]1(C(=O)Nc2ccc(F)nc2)CCCN1c1nc(Nc2cc(C3CC3)n[nH]2)c2cccn2n1` [BMS-754807], −1.139. In the case of `CCOc1ccn(-c2ccc(F)cc2)c(=O)c1C(=O)Nc1ccc(Oc2ccnc(N)c2Cl)c(F)c1` [BMS-777607] it was −0.5095; in that of `Nc1nccc(Oc2ccc(NC(=O)c3c[nH]cc(-c4ccc(F)cc4)c3=O)cc2F)c1Cl` [BMS-794833], −0.04405.

On to `CC(C)c1cnn2c(NCc3ccccc3)cc(NCCCCCCN)nc12.Cl` [BS-181 HCl], for which the log2fc turned out to be 0.09476. In the case of `O=C(NCCCNc1nc(Nc2cccc(NC(=O)N3CCCC3)c2)ncc1I)c1cccs1` [BX-795] it was −0.3476. In the case of `O=C(Nc1cccc(Nc2ncc(Br)c(NCCc3cnc[nH]3)n2)c1)N1CCCC1` [BX-912] it was −0.4536; in that of `CCN(CCO)CCCOc1ccc2c(Nc3cc(CC(=O)Nc4cccc(F)c4)[nH]n3)ncnc2c1` [Barasertib (AZD1152-HQPA)], 0.7387; in that of `CC(C)(C)c1ccc(S(=O)(=O)/C=C/C#N)cc1` [Bay 11-7085], 0.004153.

On to `Cn1cnc2c(F)c(Nc3ccc(Br)cc3F)c(C(=O)NOCCO)cc21` [Binimetinib (MEK162, ARRY-162, ARRY-438)], for which the log2fc came out at 0.5434.

With `CN(C)CCCn1cc(C2=C(c3c[nH]c4ccccc34)C(=O)NC2=O)c2ccccc21` [Bisindolylmaleimide I (GF109203X)], the log2fc is given as −0.2332. Under `COc1cc(Nc2c(C#N)cnc3cc(OCCCN4CCN(C)CC4)c(OC)cc23)c(Cl)cc1Cl` [Bosutinib (SKI-606)] stands −0.1583. Under `Cc1cc2c(F)c(Oc3ncnn4cc(OC[C@@H](C)O)c(C)c34)ccc2[nH]1` [Brivanib (BMS-540215)] stands 0.1194. In the case of `Cc1cc2c(F)c(Oc3ncnn4cc(OC[C@@H](C)OC(=O)[C@H](C)N)c(C)c34)ccc2[nH]1` [Brivanib Alaninate (BMS-582664)] it was 0.04321.

`Nc1cc(C(F)(F)F)c(-c2cc(N3CCOCC3)nc(N3CCOCC3)n2)cn1` [Buparlisib (BKM120, NVP-BKM120)]: the log2fc is −1.183.

For the compound `C=CC(=O)Nc1cccc(Nc2nc(Nc3ccc(OCCOC)cc3)ncc2F)c1` [CC-292 (AVL-292)], the log2fc is −0.2142. In the case of `NC1(Cc2ccc(Cl)cc2)CCN(c2ncnc3[nH]ccc23)CC1` [CCT128930] it was −0.2364; in that of `CN1CCN(c2cccc(Nc3nc4c(-c5ccc(S(C)(=O)=O)cc5)cccn4n3)c2)CC1` [CEP-33779], −0.6078; in that of `Cc1c(NC(=O)c2ccc(C(C)(C)C)cc2)cccc1-c1cn(C)c(=O)c(Nc2ccc(C(=O)N3CCOCC3)cc2)n1` [CGI1746], 0.8939. Under `O=C(NC(NC(=S)Nc1ccc(F)c([N+](=O)[O-])c1)C(Cl)(Cl)Cl)C(c1ccccc1)c1ccccc1` (stereo not shown) [CGK 733] stands 0.1923; under `CS(=O)(=O)N1CCc2c(-c3cnc(N)nc3)nc(N3CCOCC3)nc21` [CH5132799], −1.044; under `O=c1[nH]c2ccc(Cl)cc2c(N[C@@H]2CN3CCC2CC3)c1-c1nc2ccccc2[nH]1` [CHIR-124], 1.257. In the case of `Cc1cnc(-c2cnc(NCCNc3ccc(C#N)cn3)nc2-c2ccc(Cl)cc2Cl)[nH]1.Cl` [CHIR-99021 (CT99021) HCl] it was 0.9577; in that of `Cc1cnc(-c2cnc(NCCNc3ccc(C#N)cn3)nc2-c2ccc(Cl)cc2Cl)[nH]1` [CHIR-99021 (CT99021)], 1.316; in that of `C=CC(=O)Nc1cccc(Nc2nc(Nc3ccc(Oc4ccnc(C(=O)NC)c4)cc3)ncc2F)c1` [CNX-774], −0.2519. In the case of `C=CC(=O)Nc1cccc(Nc2nc(Nc3ccc(NC4CN(CCF)C4)cc3OC)ncc2C(F)(F)F)c1` [CNX-2006], the log2fc came to 0.1218. `COCCOc1ccc2c(c1)ncn2-c1ccc2cccc(N3CCC(N)CC3)c2n1` [CP-673451]: the log2fc came to 0.4234. `COCC(=O)NC/C=C/c1ccc2ncnc(Nc3ccc(Oc4ccc(C)nc4)c(C)c3)c2c1` [CP-724714, reference compound] gave a log2fc of 0.2836. Under `C#Cc1cccc(Nc2ncnc3cc(OC)c(OCCCCCCC(=O)NO)cc23)c1` [CUDC-101, reference compound] stands 0.1269. Under `COc1ccc(-c2nc(N3CCOCC3)c3sc(CN(C)c4ncc(C(=O)NO)cn4)cc3n2)cn1` [CUDC-907] stands 0.5895; under `CN1CCCN(C(=O)c2cccc(-c3ccc(/C=C4/C(=O)Nc5ccc(Cl)cc54)o3)c2)CC1.Cl` [CX-6258 HCl], −0.355; under `Cc1nc(N)sc1-c1ccnc(Nc2ccc(N3CCOCC3)cc2)n1` [CYC116], −0.814. In the case of `CC(C)(C)NS(=O)(=O)c1cncc(-c2cc(F)c3nc(N)nn3c2)c1` [CZC24832], the log2fc turned out to be 0.2139.

In turn, `COc1cc2nccc(Oc3ccc(NC(=O)C4(C(=O)Nc5ccc(F)cc5)CC4)cc3)c2cc1OC` [Cabozantinib (XL184, BMS-907351)] gave a log2fc of 0.001197. Under `COc1cc2nccc(Oc3ccc(NC(=O)C4(C(=O)Nc5ccc(F)cc5)CC4)cc3)c2cc1OC.O=C(O)C[C@H](O)C(=O)O` [Cabozantinib malate (XL184)] stands 0.5713; under `COc1cc2c(Oc3ccc4[nH]c(C)cc4c3F)ncnc2cc1OCCCN1CCCC1` [Cediranib (AZD2171)], 0.01224; under `Cc1cc(Nc2ncc(Cl)c(Nc3ccccc3S(=O)(=O)C(C)C)n2)c(OC(C)C)cc1C1CCNCC1` [Ceritinib (LDK378)], 0.2988. In the case of `Cc1cc(O)c2c(c1)C(=O)c1cccc(O)c1C2=O` [Chrysophanic Acid] it was −0.1902; in that of `CC1(COc2ccc3c(c2)ncn3-c2ccc3cccc(N4CCC(N)CC4)c3n2)COC1` [Crenolanib (CP-868596)], 0.3666; in that of `C[C@@H](Oc1cc(-c2cnn(C3CCNCC3)c2)cnc1N)c1c(Cl)ccc(F)c1Cl` [Crizotinib (PF-02341066)], 0.196. In the case of `CCN1CCN(Cc2ccc(C(=O)Nc3ccc(C)c(Oc4ccc5c(c4)CC(=O)N5)c3)cc2C(F)(F)F)CC1` [DDR1-IN-1], the log2fc is listed as −0.4228. In the case of `CC(C)(C)c1nc(-c2cccc(NS(=O)(=O)c3c(F)cccc3F)c2F)c(-c2ccnc(N)n2)s1` [Dabrafenib (GSK2118436), dabrafenib, reference compound] it was −0.314. Turning to `COc1cc2ncnc(Nc3ccc(F)c(Cl)c3)c2cc1NC(=O)/C=C/CN1CCCCC1` [Dacomitinib (PF299804, PF299)], the log2fc stood at 0.3997.
